# Assay results from patent US20250276009A1, “Therapeutic use of hydrogen sulfide in frostbite injury” ([(The)] London Health Sciences Centre Research Inc., priority 2024, published 2025).
# Where two headings read alike, the source gives them in different places.
# Columns and labels:
# [1] = test system: frostbite injury on the dorsal skin of C57BL/6 mice; test: Frostbite wound size / wound healing after daily topical application of H2S donor in vehicle cream; assay type: in vivo, C57BL/6 mice (Mus musculus); settings: for reduction of frostbite wound from day 4 to day 15 versus vehicle control: 150 μM STS or 200 μmol/kg GYY4137 in hyaluronan/phosphatidylethanolamine vehicle cream; for reduction of frostbite wound from day 4 to day 15 versus vehicle control / frostbite wound size compared to vehicle-treated control mice: daily topical; for frostbite wound healing compared to vehicle control group: daily topical in vehicle cream until day 15
# Text: The Animal Use Committee of the University of Western Ontario approved all experimental procedures. The experimental procedures were considered as Category D from the Canadian Council of Animal Care's Categories of Invasiveness for Animal Experiments. A total of 25 […] mice aged between 8-10 weeks old were obtained from Charles River Canada (Senneville, Quebec, Canada) and housed 5 per cage under a 12-hour light/dark cycle at the Health Sciences Animal Care Facility at the University of Western Ontario (London, Ontario, Canada). Mice were randomly assigned to 5 groups being healthy control (n=5), crush control (n=5), vehicle control (n=5), 200 nM AP39 (n=5) and 1 μM AP39 (n=5).
# To ease the process of skin preparation, mice were initially anesthetized with a combination of 20 mg/ml xylazine and 100 mg/mL ketamine intraperitoneally, and the dorsal fur of the animals were shaved using electric clippers from the top of the hind legs to the base of the neck. A depilatory cream was then used to remove any fur still remaining. General anesthesia was maintained by inhalation of 5% isoflurane and oxygen delivered at 400 mL/minute to minimize the time of recovery post-anesthesia. Following complete fur removal, the skin of the animal was cleaned completely of the hair removal cream using an alcohol prep pad. Next, a silicone sheet was used as a template to trace a uniform circle on the surface of the skin using a permanent marker. The circular outline on the back of the animal was used as a guide during frostbite injury (see FIGS. 1A to 1E).
# The vehicle cream containing hyaluronan and phosphatidylethanolamine (referred to as HEPE) as active ingredients, was provided by Dr. Eva Turley, and allowed for delivery of AP39 to the vascularized layers of the dermis. AP39 was generously provided by Dr. Matthew Whiteman (Exeter, UK) and diluted to a stock concentration of 1 mM in DMSO. […] To prepare the cream+H2S donor compound, the H2S donor was added via micropipette combined by stirring and subsequent mixing using a vortex device to final concentrations of 200 nM, 1 µM and 150 μM.
# [2] = test system: frostbite injury on the dorsal skin of C57BL/6 mice; test: Histopathological scoring (H&E) of frostbite wound tissue, day 15; assay type: in vivo, C57BL/6 mice (Mus musculus); settings: for chronic inflammation (histological score 0-3) vs vehicle control: 200 μmol/kg GYY4137 or 150 μM STS; for progress of frostbite wound healing phase (histopathology, collective): daily topical in vehicle cream, day 15
# Procedure: The formalin-fixed skin tissue samples were embedded in paraffin blocks and sectioned at 8-μm thick on a microtome and collected on SuperFrost Plus® glass slides (J1800AMNZ, Thermo Fisher Scientific Inc., Germany). Histology was performed on the tissue sections using hematoxylin and eosin (H&E) staining to visualize general tissue morphology and assess the degree of tissue injury. A modified version of a previously developed histological scoring system established by Abramov et al was used for this study. The histopathological scoring was assessed blindly by a dermatopathologist for 5 parameters of healing (acute inflammation, chronic inflammation, amount of granulation tissue, fibroblast maturation and re-epithelialization) and assigned a score as per the following scheme: 0=None; 1=Scant; 2=Moderate; 3=Abundant. Acute inflammation was scored based on the presence of neutrophils while chronic inflammation was evaluated based on the presence of plasma cells and monocytes. Fibroblast maturation was determined on the basis of shape and alignment of these cells.
# [3] = test system: cleaved caspase-3; test: Immunofluorescence staining of frostbite wound tissue, day 15: apoptosis marker; assay type: in vivo, C57BL/6 mice (Mus musculus); settings: daily topical in vehicle cream, day 15, vs vehicle control
# Procedure: (§1) Based on a previously validated model [1], 100% ceramic magnets (diameter 18.0 mm, thickness 5.0 mm, weight 4.5 g) were used to induce frostbite injury. Magnets were frozen in dry ice (−80° C.) prior to animal skin preparation. The dorsal skin of C57BL/6 mice (Mus musculus) was pinched to create a skin fold and a silicone sheet was placed underneath as illustrated in FIG. 1D. The silicone sheet acted as a barrier to prevent the mice from possible systemic hypothermia while creating a precise injury and maximizing survival. Two frozen magnets were then placed on the skin from opposite sides of the skin fold such that they adhered with the middle of the circle outline at the peak of the fold's center as described by Auerbach et al., [1] and illustrated in FIG. 1D. After 1 minute, the magnets were removed and new frozen magnets simultaneously placed in order to keep the freezing temperature of the magnets consistent and ensured that no thawing of the skin occurred. A total of 3 magnet exchange cycles occurred in order to induce frostbite injury to the mice for 3 minutes after which the skin was allowed to thaw completely. […] The animals were placed on a heating pad set to 37° C. to mitigate the risk of death due to systemic hypothermia. Upon induction of frostbite injury, the mice were randomly assigned to the following groups: vehicle cream control, 200 nM AP39 plus vehicle cream, 1 μM AP39 plus vehicle cream, 150 μM STS plus vehicle cream, 200 μmol/kg GYY4137 plus vehicle cream, and received daily topical application of vehicle cream without H2S donor, vehicle cream containing 200 nM AP39 (200 μL), vehicle cream containing 1 μM AP39 (200 μL), vehicle cream containing 150 μM STS (200 μL) and vehicle cream containing 200 μmol/kg GYY4137 (200 μL) respectively until time of sacrifice.
# Another group of mice that received no frostbite injury or room temperature magnet placement served as healthy controls. […]
# [4] = test system: CD31; test: Immunofluorescence staining of frostbite wound tissue, day 15: vascularization and angiogenesis marker; assay type: in vivo, C57BL/6 mice (Mus musculus); settings: for angiogenesis compared to vehicle control: daily topical in vehicle cream, day 15, p<0.01
# Procedure: as §1
# (§2) Post-procedure analgesia included administration of meloxicam at 1 mg/kg/day for 3 days. Another group of mice that received no frostbite injury or room temperature magnet placement served as healthy controls. All groups of mice were sacrificed by CO2 euthanasia on day 15 after frostbite induction or room temperature magnet placement, and samples of the injured dorsal skin tissue were collected and stored in 10% neutral buffered formalin for histopathological analysis. The animals were euthanized on day 15 because this is the time point at which markers of wound healing were expected to be best seen in the wound as previously reported [5].
# (§3) Immunofluorescence staining was performed to detect the expression of cleaved caspase-3 (1:100; a marker for apoptosis and is being used to assess frostbite damage), CD31 (1:100; a marker of vascularization and angiogenesis, as it is found on early endothelial cells), KI-67 (1:50; a marker of proliferation, which is abundant in a healing wound as granulation tissue forms and re-epithelialization occurs), fibronectin (1:100; secreted by fibroblasts to generate granulation tissue, which is the new connective tissue that covers a wound.), cytokeratin (1:200; a marker of differentiation and proliferation of keratinocytes, which are important for re-epithelialization of a wound) and CD163 (1:200; a macrophage-specific marker during wound healing) [7, 8]. These antibodies were purchased from Abcam in Toronto, Canada to examine the degree of frostbite injury as well as important healing stages including angiogenesis, re-epithelialization, granulation tissue formation and inflammation. Following a rehydration step in xylene and decreasing series of alcohol (100%, 95%, 70% and 50%) and de-ionized water, the tissue sections were washed with 1× phosphate buffered saline (PBS) for 10 minutes.
# [5] = test system: KI-67; test: Immunofluorescence staining of frostbite wound tissue, day 15: proliferation marker; assay type: in vivo, C57BL/6 mice (Mus musculus); settings: for cell proliferation compared to vehicle control: daily topical in vehicle cream, day 15, p<0.001
# Procedure: as §1, §2
# (§4) Immunofluorescence staining was performed to detect the expression of cleaved caspase-3 (1:100; a marker for apoptosis and is being used to assess frostbite damage), CD31 (1:100; a marker of vascularization and angiogenesis, as it is found on early endothelial cells), KI-67 (1:50; a marker of proliferation, which is abundant in a healing wound as granulation tissue forms and re-epithelialization occurs), fibronectin (1:100; secreted by fibroblasts to generate granulation tissue, which is the new connective tissue that covers a wound.), cytokeratin (1:200; a marker of differentiation and proliferation of keratinocytes, which are important for re-epithelialization of a wound) and CD163 (1:200; a macrophage-specific marker during wound healing) [7, 8]. These antibodies were purchased from Abcam in Toronto, Canada to examine the degree of frostbite injury as well as important healing stages including angiogenesis, re-epithelialization, granulation tissue formation and inflammation. […]
# [6] = test system: fibronectin; test: Immunofluorescence staining of frostbite wound tissue, day 15: granulation tissue marker; assay type: in vivo, C57BL/6 mice (Mus musculus); settings: for granulation tissue formation compared to vehicle control: daily topical in vehicle cream, day 15, p<0.001; for fibronectin expression: day 15
# Procedure: as §1, §2, §3
# [7] = test system: CD163; test: Immunofluorescence staining of frostbite wound tissue, day 15: macrophage-specific marker; assay type: in vivo, C57BL/6 mice (Mus musculus); settings: for CD163 expression: day 15
# Procedure: as §1, §2, §4
# [8] = test system: cytokeratin; settings: day 15
# Procedure: as §1
# Post-procedure analgesia included administration of meloxicam at 1 mg/kg/day for 3 days. Another group of mice that received no frostbite injury or room temperature magnet placement served as healthy controls. All groups of mice were sacrificed by CO2 euthanasia on day 15 after frostbite induction or room temperature magnet placement, and samples of the injured dorsal skin tissue were collected and stored in 10% neutral buffered formalin for histopathological analysis. The animals were euthanized on day 15 because this is the time point at which markers of wound healing were expected to be best seen in the wound as previously reported [5]. […]
# [9] = 150 μM STS with Nivea, vs Nivea alone
# [10] = 150 μM STS in Aveeno vs Aveeno without STS
# [11] = 150 μM STS in Dove vs Dove without STS
# [12] = 150 μM STS in Neutrogena vs Neutrogena without STS
# [13] = 150 μM STS in Nivea vs Nivea without STS
# [14] = 1 μM AP39 vs 200 nM AP39 and vehicle control, day 15, p<0.05
# [15] = 1 μM AP39, relative to 200 nM AP39, day 15, p<0.05
compound,measurement,setting,value
C1COCCN1.COc1ccc(P(=S)(S)N2CCOCC2)cc1 (centres unmarked) [GYY4137],reduction of frostbite wound from day 4 to day 15 versus vehicle control,[1],slightly smaller than that of the vehicle control
same,frostbite wound healing compared to vehicle control group,[1],improved wound healing
same,chronic inflammation (histological score 0-3) vs vehicle control,"[2]; day 15, p>0.05",did not show significant difference
same,"progress of frostbite wound healing phase (histopathology, collective)",[2],hastened frostbite wound healing from inflammatory to proliferative phase
same,apoptosis in frostbite injury (cleaved caspase-3 expression),[3],no effect
same,angiogenesis compared to vehicle control,[4],improved
same,cell proliferation compared to vehicle control,[5],improved
same,granulation tissue formation compared to vehicle control,[6],improved
"O=S([O-])([O-])=S.[Na+].[Na+] [STS, sodium thiosulfate]",wound size compared to the corresponding vehicle control without STS,"[1]; 150 μM STS in commercially available creams (Aveeno, Dove, Neutrogena, Nivea), day 4 to day 15",progressively reduced wound size
same,reduction of frostbite wound from day 4 to day 15 versus vehicle control,[1],slightly smaller than that of the vehicle control
same,"wound size, day 15","[1]; 150 μM STS with Aveeno, vs Aveeno alone",reduced wound size
same,"wound size, day 15","[1]; 150 μM STS with Dove, vs Dove alone",reduced wound size
same,"wound size, day 4",[1]; [9],reduced wound size
same,"wound size, day 15",[1]; [9],reduced wound size
same,"wound healing, comparison of delivery creams",[1]; STS via Aveeno and Nivea creams compared to Dove and Neutrogena,improved wound healing compared to Dove® and Neutrogena®
same,frostbite wound healing compared to vehicle control group,[1],improved wound healing
same,chronic inflammation (histological score 0-3) vs vehicle control,"[2]; day 15, p>0.05",did not show significant difference
same,"progress of frostbite wound healing phase (histopathology, collective)",[2],hastened frostbite wound healing from inflammatory to proliferative phase
same,apoptosis in frostbite injury (cleaved caspase-3 expression),[3],no effect
same,CD31 expression,"[4]; 150 μM STS in Aveeno vs Aveeno without STS, day 15",significant upregulation
same,CD31 expression,"[4]; 150 μM STS in Dove vs Dove without STS, day 15",significant upregulation
same,CD31 expression,"[4]; 150 μM STS in Neutrogena vs Neutrogena without STS, day 15",No significant change
same,CD31 expression,"[4]; 150 μM STS in Nivea vs Nivea without STS, day 15",significant upregulation
same,angiogenesis compared to vehicle control,[4],improved
same,cell proliferation compared to vehicle control,[5],improved
same,CD163 expression,[7]; [10],significant increase
same,CD163 expression,[7]; [11],significant increase
same,CD163 expression,[7]; [12],decrease in CD163 expression albeit not significant
same,CD163 expression,[7]; [13],significant increase
same,fibronectin expression,[6]; [10],significantly increased
same,fibronectin expression,[6]; [11],did not increase fibronectin expression significantly
same,fibronectin expression,[6]; [12],did not increase fibronectin expression significantly
same,fibronectin expression,[6]; [13],significantly increased
same,granulation tissue formation compared to vehicle control,[6],improved
same,cytokeratin expression,[8]; [10],significantly increased
same,cytokeratin expression,[8]; [11],No significant change
same,cytokeratin expression,[8]; [12],significantly increased
same,cytokeratin expression,[8]; [13],significantly increased
"O=C(CCCCCCCCC[P+](c1ccccc1)(c1ccccc1)c1ccccc1)Oc1ccc(-c2cc(=S)ss2)cc1.[Br-] [AP39, (10-oxo-10-(4-(3-thioxo-3H-1,2-dithiol-5-yl)phenoxy)decyl)triphenylphosphonium bromide]",frostbite wound size compared to vehicle-treated control mice,"[1]; 200 nM AP39 in vehicle cream containing hyaluronan and phosphatidylethanolamine, day 4 to day 15",progressively reduced wound size
same,frostbite wound size compared to vehicle-treated control mice,"[1]; 1 μM AP39 in vehicle cream containing hyaluronan and phosphatidylethanolamine, day 4 to day 15",progressively reduced wound size
same,frostbite wound healing compared to vehicle control group,[1],improved wound healing
same,chronic inflammation (histological score 0-3),"[2]; 200 nM AP39, day 15, p>0.05",did not change
same,fibroblast maturation (histological score 0-3),"[2]; 200 nM AP39 vs 1 μM AP39 and vehicle control, day 15, p<0.05",highest
same,chronic inflammation (histological score 0-3),"[2]; 1 μM AP39, day 15, p>0.05",did not change
same,acute inflammation (histological score 0-3),[2]; [14],significantly greater
same,amount of granulation tissue (histological score 0-3),[2]; [14],markedly increased
same,wound re-epithelialization (histological score 0-3),"[2]; AP39 (200 nM and 1 μM) vs vehicle control, day 15, p>0.05",increased wound re-epithelialization (epithelial restitution) albeit not significantly different
same,"progress of frostbite wound healing phase (histopathology, collective)",[2],hastened frostbite wound healing from inflammatory to proliferative phase
same,apoptosis in frostbite injury (cleaved caspase-3 expression),[3],no effect
same,CD31 expression,"[4]; 200 nM AP39, day 15, p<0.05",markedly expressed
same,CD31 expression,[4]; [15],significantly reduced
same,angiogenesis compared to vehicle control,[4],improved
same,KI-67 expression,"[5]; 200 nM AP39, day 15, p<0.05",markedly expressed
same,KI-67 expression,[5]; [15],significantly reduced
same,cell proliferation compared to vehicle control,[5],improved
same,CD163 expression (M2-like anti-inflammatory macrophages),"[7]; 200 nM AP39, day 15",increased anti-inflammatory activity
same,fibronectin expression compared to vehicle control mice,"[6]; 200 nM AP39, day 15",significantly increased expression
same,fibronectin expression compared to vehicle control mice,"[6]; 1 μM AP39, day 15",significantly increased expression
same,granulation tissue formation compared to vehicle control,[6],improved
